How the values were obtained:
[1] = Total antioxidant capacity (FRAP method); conditions: 27 μM, absorbance 593 nm
Procedure: The total antioxidant capacity of several flavonoids was detected by the total antioxidant capacity test kit (FRAP method). The principle of the FRAP method is that the antioxidant can reduce ferric-tripyridyltriazine (Fe^3+-TPTZ) to produce a blue Fe^2+-TPTZ under an acidic condition. Measuring the blue Fe^2+-TPTZ at a wavelength of 593 nm to access the antioxidant capacity of the sample. Since the reaction is carried out under an acidic condition, some of the endogenous interference factors can be excluded. (1) Prepare proper amount of FRAP working solution according to the samples numbers referring to the following table. The FRAP working solution was incubated at 37° C. and used no longer than 1-2 hours. Prepare 10 species of flavonoids: quercetin (Que), daidzein (Dai), kaempferol (Kae), apigenin (Api), naringenin (Nar), genistein (Gen), hesperidin (Her), luteolin (Lut), chrysin (Chr) and nobiletin (Nob). Make the final concentration of each flavonoid to 27 μM. Dissolve 27.8 mg of FeSO4.7H2O provided by this kit and dilute to 1 ml to make the concentration to 100 mM. Take an appropriate amount of FeSO4 solution and dilute it to 0.15, 0.3, 0.6, 1.2 and 1.5 mM, respectively. Distilled water or sample preparation solution was used for the preparation of the standards. […] (3) Incubate the plate at 37° C. for 3-5 min, and then determine the absorbance at 593 nm. […]

[2] = system: 4T1 breast tumor with lung metastasis; assay: Survival of mice bearing 4T1 breast tumor with lung metastasis after radiotherapy; format: in vivo, Balb/c mice
Procedure: (1) Resuscitation and culture of 4T1 cells: Cell culture hood need to be sterilized by UV for 30 min before resuscitating the 4T1 cells. Equilibrate the RPMI 1640 culture medium (containing 10% fetal bovine serum) to room temperature for further application. The cryovial containing tumor cells are taken from liquid nitrogen storage and immediately put into a 37° C. water bath, shaking quickly until the cells are completely dissolved. Transfer the cells into a cell culture flask with 10-15 ml medium to suspend the sedimentary cells. After adjusting the concentration of the cells, culture the cells in an incubator with a saturated humidified atmosphere containing 5% (v/v) CO2 at 37° C. Replace fresh medium every day during. Digest the cells by 0.25% trypsin when the convergence of the cells reaches 90%, and then subculture the cells at a ratio of 1:3. On the day of experiment, we collect the cells by digesting the cells with 0.25% trypsin, then neutralize the trypsin with RPMI 1640 with 10% fetal bovine serum. Centrifuge the cells at 800 rpm, and then resuspend the cells in sterile PBS. After counting the density of cells, adjust the cells to 1×10^5/ml for tumor cells inoculation. (2) 4T1 cells are mixed well before inoculation. Pipet 0.3 ml of cells by a 1 ml sterile syringe, and inject 0.1 ml of cells per mouse (namely 1×10^4 4 T1 cells per mouse). (1) 4T1 murine breast tumor cell line was intravenously injected to form lung metastatic tumors in Balb/c mice. Lung metastatic nodules would develop about 10-15 days after 1×10^4 4 T1 cells were inoculated. (2) Set the day of inoculation as day 0, at day 12 after inoculation, different doses of naringenin (Nar), namely 50, 100 and 200 mg/kg (suspended in 1% CMC-Na), were administered orally. The mice received γ-ray irradiation (8 Gy×2 f) at day 14 and day 15 after inoculation. […] The administration of either naringenin or dexamethasone plus cefixime continued until the mice started to die, and the survivals were observed and recorded. […]

[3] = system: 4T1 breast tumor with lung metastasis; assay: 4T1 breast tumor lung metastasis mice with lung irradiation: lung injury, nodules, cytokines; format: in vivo, Balb/C mice
Procedure: (1) Resuscitation and culture of 4T1 cells: Cell culture hood need to be sterilized by UV for 30 min before resuscitating the 4T1 cells. Equilibrate the RPMI 1640 culture medium (containing 10% fetal bovine serum) to room temperature for further application. The cryovial containing tumor cells are taken from liquid nitrogen storage and immediately put into a 37° C. water bath, shaking quickly until the cells are completely dissolved. Transfer the cells into a cell culture flask with 10-15 ml medium to suspend the sedimentary cells. After adjusting the concentration of the cells, culture the cells in an incubator with a saturated humidified atmosphere containing 5% (v/v) CO2 at 37° C. Replace fresh medium every day during. Digest the cells by 0.25% trypsin when the convergence of the cells reaches 90%, and then subculture the cells at a ratio of 1:3. On the day of experiment, we collect the cells by digesting the cells with 0.25% trypsin, then neutralize the trypsin with RPMI 1640 with 10% fetal bovine serum. Centrifuge the cells at 800 rpm, and then resuspend the cells in sterile PBS. After counting the density of cells, adjust the cells to 1×10^5/ml for tumor cells inoculation. (2) 4T1 cells are mixed well before inoculation. Pipet 0.3 ml of cells by a 1 ml sterile syringe, and inject 0.1 ml of cells per mouse (namely 1×10^4 4 T1 cells per mouse). (1) 4T1 murine breast tumor cell line was used to inoculate the tail vein of Balb/C mice to form lung metastatic tumors. 1×10^4 4 T1 cells were intravenously injected into the tail vein per mouse, and 10-15 days later nodules would develop in lung. (2) Set the day of inoculation as day 0. 200 mg/kg naringenin (Nar) (suspended in 1% CMC-Na) was administered orally to the mice at day 12 day after inoculation, namely 3 days before irradiation on the lungs. The mice received a 12 Gy of γ-ray irradiation once at day 14 after inoculation and keep naringenin administration. A part of the mice in each group were sacrificed at day 28 after inoculation and the blood, lung tissues were collected while the lungs were weighed. The tumor nodules in the lungs were observed under the condition of without destroying the integrity of lung tissues. Serum were separated and assayed for cytokines such as IL-6, IL-113, IFN-γ, etc. The lung tissues collected at day 28 after inoculation were used for biopsy and the observation of lung injury as well as inflammatory cells infiltration. The rest animals were used for survival observation. The mice in this experiment are separated into 4 groups as follows: • 1) Normal control group (Normal) • 2) 4T1 tumor-bearing mice without irradiation group (4T1) • 3) 4T1 tumor-bearing mice receiving lung irradiation without naringenin administration group (4T1+IR) • 4) 4T1 tumor-bearing mice receiving lung irradiation with naringenin administration group (4T1+IR+Nar) 3 groups of mice were inoculated with 4T1 tumor cells. Each group contains 12 mice with half male and half female which were fed in separate cages, and each cage contains 6 mice.

[4] = system: inflammatory cytokine IL-1β; assay: DNA fragment-induced IL-1β release from primary peritoneal macrophages (ELISA); format: cell-based, mouse; conditions: 100 μM pretreatment 2 h, DNA fragments 100 ng/mL 24 h, supernatant ELISA
Procedure: 4% Brewer thioglycollate medium (1.5 ml/mouse) was intraperitoneally injected. Four days later, washing the abdominal cavity of these mice with serum-free medium (DMEM) (10 ml/mouse). The lavage fluids were collected and centrifuged at 1300 rpm for 5 minutes. The cell pellet was resuspended and seeded into a 24-well plate at the concentration of 2×10^6 cells/well. Two hours later, the non-adherent cells were carefully removed and the remaining adherent cells are primary peritoneal macrophages. Identification: Macrophage surface marker F4/80 was detected by flow cytometry using PE-labelled anti-F4/80 antibody (ebioscience). […] Sample treatment: The macrophages were pretreated with 100 μM naringenin (Nar) for 2 h, and then were stimulated with DNA fragments (100 ng/mL) for 24h. The supernatants were collected and the concentration of inflammatory cytokine IL-1β (pg/mL) in the supernatant was measured by ELISA.

LLC lung tumor = LLC lung tumor bearing mice with lung irradiation; format: in vivo, C57B6/L mice
Text: (1) LLC murine lung cancer cell line was used to intravenously inoculate the C57B6/L mice to form lung metastatic tumors. About 24 days after 5×10^5 LLC cells were inoculated, nodules in the lung would develop. (2) The mice were divided into 4 groups, and each group contains 10 mice. The grouping methods are as followed: 1) Normal control group (Normal); 2) LLC tumor-bearing mice without irradiation group (LLC); 3) LLC tumor-bearing mice receiving lung irradiation without naringenin administration group (LLC+IR); 4) LLC tumor-bearing mice receiving lung irradiation with naringenin (Nar) administration group (LLC+IR+Nar); Set the day of inoculation as day 0. (6) 100 mg/kg naringenin (Nar) (suspended in 1% CMC-Na) was administered orally to each of the mice in LLC+IR+Nar group at day 12 after inoculation (namely 3 days before lung irradiation); (7) The mice received γ-ray irradiation with a dose of 12 Gy per mouse per time at day 14 after inoculation; (8) Continue to orally administrate 100 mg/kg naringenin (Nar) (suspended in 1% CMC-Na) to each of the mice in LLC+IR+Nar group at day 15 day after inoculation (namely 1 day after lung irradiation); (9) At day 21 after inoculation, 5 animals in each group were randomly selected for sample collection. After dissection, the blood and lung tissues were collected, and the lungs were weighed. Then the number of tumor nodules in the lungs were counted without destroying the complete structure of lung tissues. (10) At day 37 after inoculation, the remaining animals in each group were sacrificed and dissected. The blood and lung tissues were collected, and the lungs were weighed. Then the number of tumor nodules in the lungs were counted without destroying the complete structure of lung tissues. Serum was separated and assayed for inflammatory cytokines such as IL-6, IL-113, IFN-γ, etc. The lung tissues were used for biopsy and the observation of lung injury and inflammatory cells infiltration. […]

[5] = 200 mg/kg oral, 12 Gy γ-ray, compared to 4T1+IR group

O=C1C[C@@H](c2ccc(O)cc2)Oc2cc(O)cc(O)c21 [naringenin]
antioxidant capacity [1]: very weak | survival of tumor-bearing mice compared with positive drugs (DXM+CXL) ([2]; 100 mg/kg oral vs dexamethasone 0.25 mg/kg plus cefixime 200 mg/kg): improvement in the survival | sensitizing/synergizing effect combined with radiotherapy (survival) ([2]; 100 mg/kg oral, compared among the 3 doses): highest sensitizing/synergizing effect | survival of tumor-bearing mice ([2]; 50, 100 and 200 mg/kg oral, γ-ray 8 Gy×2 f, compared with 4T1+IR group): significantly prolonged | number of tumor nodules in lungs ([3]; 200 mg/kg oral from day 12, 12 Gy γ-ray at day 14, day 28, compared to 4T1 group and 4T1+IR group): decreased | lung injury and fibrosis (pathological analysis) ([3]; 200 mg/kg oral, 12 Gy γ-ray, day 28, 4T1+IR+Nar vs 4T1+IR): markedly alleviated | serum level of IFN-γ [3, 5]: significantly changed | serum level of IL-1β [3, 5]: significantly changed | serum level of IL-6 [3, 5]: significantly changed | release of inflammatory cytokine IL-1β [4]: significantly reduces | number of tumor nodules in lungs (LLC lung tumor; 100 mg/kg oral, 12 Gy γ-ray at day 14, compared to LLC and LLC+IR group): significantly decreased | lung injury (pathological analysis) (LLC lung tumor; 100 mg/kg oral, 12 Gy γ-ray, LLC+IR+Nar vs LLC+IR): significantly alleviated | survival of mice bearing LLC lung tumor after radiotherapy (LLC lung tumor; FIG. 5 legend): prolongs the survival
